The structures appear in SMILES notation. Like-named read-outs stand apart in the source and are kept apart here. Where only a bound is given, the exact number is not on record here.

One experiment concerns the target Mcl-1 (Homo sapiens (Human), UniProt Q07820). Nature of the experiment: Fluorescence polarization anisotropy (FPA) competition assay, FITC-Bak or FITC-Bim BH3 peptide. It is filed as binding. The conditions noted are these: read-out: Ki for Inhibition of Mcl-1 by FPA assay. In general terms: In fluorescence polarisation assays a small probe gives low polarisation when free and higher when bound to something large.

In experiment [1] the test system is H929 human cancer cell lines. Kind of experiment: Cellular viability / proliferation (Cell TiterGlo, 72 h). The experiment is classed as cell-based. The procedure, abridged: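 Cells were seeded at 1,000 cells/well in medium with 10% FBS and dosed 24 h later with a 2-fold serial dilution of compound (top concentration 50 μM, final DMSO <1%).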
Setting [2] is: Homo sapiens, NCI-H929, 72 h, read-out: GI50 on cellular proliferation of H929 human cancer cell lines, H929 cells, 72 h, Cell TiterGlo, 10% FBS.
The mark [3] stands for this setting: H929 cells, 72 h, Cell TiterGlo, 10% FBS, read-out: GI50 on cellular proliferation of H929 human cancer cell lines.

Mcl-1, sequence (Q07820 172-327): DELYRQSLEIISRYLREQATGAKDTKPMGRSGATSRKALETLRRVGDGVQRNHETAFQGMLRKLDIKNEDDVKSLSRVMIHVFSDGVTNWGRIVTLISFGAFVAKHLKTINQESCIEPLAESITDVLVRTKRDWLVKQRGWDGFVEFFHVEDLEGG

One may read the Ki as the equilibrium dissociation constant of an inhibitor or competing ligand from its target. For the molecule `Cc1cc(OCCCc2c3n(c4c(-c5c(C)nn(C)c5C)c(Cl)ccc24)[C@H](C)CN(c2cccc4c(C)c(C(=O)O)n(C)c24)C3=O)cc(C)c1Cl` [Example 316, (R)-7-(7-Chloro-10-(3-(4-chloro-3,5-dimethylphenoxy)propyl)-4-methyl-1-oxo-6-(1,3,5-trimethyl-1H-pyrazol-4-yl)-3,4-dihydropyrazino[1,2-a]indol-2(1H)-yl)-1,3-dimethyl-1H-indole-2-carboxylic acid], at Mcl-1, the Ki is under 1 nM. For the same molecule, the GI50 in experiment [1] (setting [2]) stood at 470 nM.
For the molecule `Cc1cc(N2C[C@@H](C)n3c(c(CCCOc4cc(C)c(Cl)c(C)c4)c4ccc(Cl)c(-c5c(C)nn(C)c5C)c43)C2=O)c2cc(C(=O)O)n(C)c2c1` [Example 317, (R)-4-(7-Chloro-10-(3-(4-chloro-3,5-dimethylphenoxy)propyl)-4-methyl-1-oxo-6-(1,3,5-trimethyl-1H-pyrazol-4-yl)-3,4-dihydropyrazino[1,2-a]indol-2(1H)-yl)-1,6-dimethyl-1H-indole-2-carboxylic acid], the Ki on Mcl-1 was under 1 nM. Moreover, in experiment [1] (setting [2]), the GI50 was determined as 720 nM.
For `Cc1cc(OCCCc2c3n(c4c(-c5c(C)nn(CCN6CCCC6)c5C)c(Cl)ccc24)[C@H](C)CN(c2cccc4c2cc(C(=O)O)n4C)C3=O)cc(C)c1Cl` [Example 318, (R)-4-(7-Chloro-10-(3-(4-chloro-3,5-dimethylphenoxy)propyl)-6-(3,5-dimethyl-1-(2-(pyrrolidin-1-yl)ethyl)-1H-pyrazol-4-yl)-4-methyl-1-oxo-3,4-dihydropyrazino[1,2-a]indol-2(1H)-yl)-1-methyl-1H-indole-2-carboxylic acid] the same measures were 1.5 nM and 820 nM.
Turning to `Cc1cc(OCCCc2c3n(c4c(-c5c(C)nn(C)c5C)c(Cl)ccc24)[C@H](C)CN(c2ccc(O)c4cc(C(=O)O)n(C)c24)C3=O)cc(C)c1Cl` [Example 321, (M, R)-7-(7-Chloro-10-(3-(4-chloro-3,5-dimethylphenoxy)propyl)-4-methyl-1-oxo-6-(1,3,5-trimethyl-1H-pyrazol-4-yl)-3,4-dihydropyrazino[1,2-a]indol-2(1H)-yl)-4-hydroxy-1-methyl-1H-indole-2-carboxylic acid], the inhibition constant (Ki) at Mcl-1 is under 1 nM. For the same molecule, the GI50 in experiment [1] (setting [3]) was 1400 nM.
As to `Cc1cc(OCCCc2c3n(c4c(-c5c(C)nn(C)c5C)c(Cl)ccc24)[C@H](C)CN(c2cccc4cc(C(=O)O)n(CCN(C)C)c24)C3=O)cc(C)c1Cl` [Example 322, (R)-7-(7-Chloro-10-(3-(4-chloro-3,5-dimethylphenoxy)propyl)-4-methyl-1-oxo-6-(1,3,5-trimethyl-1H-pyrazol-4-yl)-3,4-dihydropyrazino[1,2-a]indol-2(1H)-yl)-1-(2-(dimethylamino)ethyl)-1H-indole-2-carboxylic acid], at Mcl-1, the Ki is 1.7 nM. The GI50 in experiment [1] (setting [2]) was determined as 1800 nM.
Take `COCCOc1ccc(N2C[C@@H](C)n3c(c(CCCOc4cc(C)c(Cl)c(C)c4)c4ccc(Cl)c(-c5c(C)nn(C)c5C)c43)C2=O)c2cc(C(=O)O)n(C)c12` [Example 323, (M, R)-4-(7-Chloro-10-(3-(4-chloro-3,5-dimethylphenoxy)propyl)-4-methyl-1-oxo-6-(1,3,5-trimethyl-1H-pyrazol-4-yl)-3,4-dihydropyrazino[1,2-a]indol-2(1H)-yl)-7-(2-methoxyethoxy)-1-methyl-1H-indole-2-carboxylic acid]: the Ki on Mcl-1 is under 1 nM. In addition, the GI50 in experiment [1] (setting [3]) turned out to be 1500 nM.
For the molecule `Cc1cc(N2C[C@@H](C)n3c(c(CCCOc4cc(C)c(Cl)c(C)c4)c4ccc(Cl)c(-c5c(C)nn(C)c5C)c43)C2=O)c2c(c1)cc(C(=O)O)n2CC1CCOCC1` [Example 324, (R)-7-(7-Chloro-10-(3-(4-chloro-3,5-dimethylphenoxy)propyl)-4-methyl-1-oxo-6-(1,3,5-trimethyl-1H-pyrazol-4-yl)-3,4-dihydropyrazino[1,2-a]indol-2(1H)-yl)-5-methyl-1-((tetrahydro-2H-pyran-4-yl)methyl)-1H-indole-2-carboxylic acid], the Ki on Mcl-1 was under 1 nM. Also, the GI50 in experiment [1] (setting [2]) amounted to 610 nM.
Turning to `COCCOc1ccc(N2C[C@@H](C)n3c(c(CCCOc4cc(C)c(Cl)c(C)c4)c4ccc(Cl)c(-c5c(C)nn(C)c5C)c43)C2=O)c2c1cc(C(=O)O)n2C` [Example 325, (M, R)-7-(7-Chloro-10-(3-(4-chloro-3,5-dimethylphenoxy)propyl)-4-methyl-1-oxo-6-(1,3,5-trimethyl-1H-pyrazol-4-yl)-3,4-dihydropyrazino[1,2-a]indol-2(1H)-yl)-4-(2-methoxyethoxy)-1-methyl-1H-indole-2-carboxylic acid], the inhibition constant (Ki) on Mcl-1 was under 1 nM. In addition, the GI50 in experiment [1] (setting [3]) is 290 nM.
Regarding `Cc1cc(OCCCc2c3n(c4c(-c5c(C)nn(C)c5C)c(Cl)ccc24)[C@H](C)CN(c2cccc4cc(C(=O)O)n(CC5CCCO5)c24)C3=O)cc(C)c1Cl` (stereo partly drawn) [Example 326, 7-((R)-7-Chloro-10-(3-(4-chloro-3,5-dimethylphenoxy)propyl)-4-methyl-1-oxo-6-(1,3,5-trimethyl-1H-pyrazol-4-yl)-3,4-dihydropyrazino[1,2-a]indol-2(1H)-yl)-1-((tetrahydrofuran-2-yl)methyl)-1H-indole-2-carboxylic acid], the Ki at Mcl-1 was under 1 nM. The GI50 in experiment [1] (setting [2]) is 590 nM.
With `Cc1cc(OCCCc2c3n(c4c(-c5c(C)nn(C)c5C)c(Cl)ccc24)[C@H](C)CN(c2ccc(OCc4ccccc4)c4c2cc(C(=O)O)n4C)C3=O)cc(C)c1Cl` [Example 327, (P, R)-7-(Benzyloxy)-4-(7-chloro-10-(3-(4-chloro-3,5-dimethylphenoxy)propyl)-4-methyl-1-oxo-6-(1,3,5-trimethyl-1H-pyrazol-4-yl)-3,4-dihydropyrazino[1,2-a]indol-2(1H)-yl)-1-methyl-1H-indole-2-carboxylic acid], the Ki at Mcl-1 worked out at 1.6 nM. In addition, in experiment [1] (setting [3]), the GI50 was determined as 3600 nM.
For `COCCOc1cc(N2C[C@@H](C)n3c(c(CCCOc4cc(C)c(Cl)c(C)c4)c4ccc(Cl)c(-c5c(C)nn(C)c5C)c43)C2=O)c2cc(C(=O)O)n(C)c2c1` [Example 328, (M, R)-4-(7-Chloro-10-(3-(4-chloro-3,5-dimethylphenoxy)propyl)-4-methyl-1-oxo-6-(1,3,5-trimethyl-1H-pyrazol-4-yl)-3,4-dihydropyrazino[1,2-a]indol-2(1H)-yl)-6-(2-methoxyethoxy)-1-methyl-1H-indole-2-carboxylic acid] the same measures were under 1 nM and 690 nM.
`Cc1cc(OCCCc2c3n(c4c(-c5c(C)nn(C)c5C)c(Cl)ccc24)[C@H](C)CN(c2cccc4cc(C(=O)O)n(Cc5ncccn5)c24)C3=O)cc(C)c1Cl` [Example 329, (R)-7-(7-Chloro-10-(3-(4-chloro-3,5-dimethylphenoxy)propyl)-4-methyl-1-oxo-6-(1,3,5-trimethyl-1H-pyrazol-4-yl)-3,4-dihydropyrazino[1,2-a]indol-2(1H)-yl)-1-(pyrimidin-2-ylmethyl)-1H-indole-2-carboxylic acid]: the Ki at Mcl-1 is under 1 nM. The GI50 in experiment [1] (setting [2]) stood at 1100 nM.
For `Cc1cc(N2C[C@@H](C)n3c(c(CCCOc4cc(C)c(Cl)c(C)c4)c4ccc(Cl)c(-c5c(C)nn(C)c5C)c43)C2=O)c2c(c1)cc(C(=O)O)n2CC1CCN(C)C1` (stereo partly drawn) [Example 330, 7-((R)-7-Chloro-10-(3-(4-chloro-3,5-dimethylphenoxy)propyl)-4-methyl-1-oxo-6-(1,3,5-trimethyl-1H-pyrazol-4-yl)-3,4-dihydropyrazino[1,2-a]indol-2(1H)-yl)-5-methyl-1-((1-methylpyrrolidin-3-yl)methyl)-1H-indole-2-carboxylic acid] the same measures were 1.3 nM and 2300 nM.
On to `Cc1cc(OCCCc2c3n(c4c(-c5c(C)nn(C)c5C)c(Cl)ccc24)[C@H](C)CN(c2cc(OCC4CCN(C)C4)cc4c2cc(C(=O)O)n4C)C3=O)cc(C)c1Cl` (stereo partly shown) [Example 331, 4-((M, R)-7-Chloro-10-(3-(4-chloro-3,5-dimethylphenoxy)propyl)-4-methyl-1-oxo-6-(1,3,5-trimethyl-1H-pyrazol-4-yl)-3,4-dihydropyrazino[1,2-a]indol-2(1H)-yl)-1-methyl-6-((1-methylpyrrolidin-3-yl)methoxy)-1H-indole-2-carboxylic acid], for which, at Mcl-1, the Ki worked out at 1.1 nM. Further, in experiment [1] (setting [3]), the GI50 came to 2300 nM.
As for `Cc1cc(N2C[C@@H](C)n3c(c(CCCOc4cc(C)c(Cl)c(C)c4)c4ccc(Cl)c(-c5c(C)nn(C)c5C)c43)C2=O)c2c(c1)cc(C(N)=O)n2C` [Example 332, (R)-7-(7-Chloro-10-(3-(4-chloro-3,5-dimethylphenoxy)propyl)-4-methyl-1-oxo-6-(1,3,5-trimethyl-1H-pyrazol-4-yl)-3,4-dihydropyrazino[1,2-a]indol-2(1H)-yl)-1,5-dimethyl-1H-indole-2-carboxamide], the Ki at Mcl-1 stood at 2.8 nM. Moreover, in experiment [1] (setting [2]), the GI50 was determined as 670 nM.
`Cc1cc(OCCCc2c3n(c4c(-c5c(C)nn(C)c5C)c(Cl)ccc24)[C@H](C)CN(c2cc(OCc4ccccc4)cc4cc(C(=O)O)n(C)c24)C3=O)cc(C)c1Cl` [Example 333, (M, R)-5-(Benzyloxy)-7-(7-chlor-10-(3-(4-chloro-3,5-dimethylphenoxy)propyl)-4 methyl-1-oxo-6-(1,3,5-trimethyl-1H-pyrazol-4-yl)-3,4-dihydropyrazino[1,2-a]indol-2(1H)-yl)-1-methyl-1H-indole-2-carboxylic acid]: on Mcl-1, the Ki was determined as 1.3 nM. The GI50 in experiment [1] (setting [3]) came out at 1100 nM.
For `COc1cc(N2C[C@@H](C)n3c(c(CCCOc4cc(C)c(Cl)c(C)c4)c4ccc(Cl)c(-c5c(C)nn(C)c5C)c43)C2=O)c2cc(C(=O)O)n(C)c2c1` [Example 334, (M, R)-4-(7-Chloro-10-(3-(4-chloro-3,5-dimethylphenoxy)propyl)-4-methyl-1-oxo-6-(1,3,5-trimethyl-1H-pyrazol-4-yl)-3,4-dihydropyrazino[1,2-a]indol-2(1H)-yl)-6-methoxy-1-methyl-1H-indole-2-carboxylic acid], the Ki on Mcl-1 is under 1 nM. The GI50 in experiment [1] (setting [3]) was 1200 nM.

The values above are taken from patent US11596639B2, “Substituted indole Mcl-1 inhibitors” (Vanderbilt University, priority 2016, dated 2023).
